Patent US20070281894A1, “PREPARATION AND UTILITY OF SUBSTITUTED ERYTHROMYCIN ANALOGS” (Auspex Pharmaceuticals, Inc., priority 2006, published 2007)

Conditions: topical or ocular, 5 microgram per mL
Procedure: Liver microsomal stability assays were conducted at 1 mg per mL liver microsome protein with an NADPH-generating system in 2% NaHCO3 (2.2 mM NADPH, 25.6 mM glucose 6-phosphate, 6 units per mL glucose 6-phosphate dehydrogenase and 3.3 mM MgCl2). Test compounds were prepared as solutions in 20% acetonitrile-water and added to the assay mixture (final assay concentration 5 microgram per mL) and incubated at 37° C. Final concentration of acetonitrile in the assay should be <1%. Aliquots (50 μL) were taken out at times 0, 15, 30, 45, and 60 minutes, and diluted with ice cold acetonitrile (200 μL) to stop the reactions. Samples were centrifuged at 12000 RPM for 10 minutes to precipitate proteins. Supernatants were transferred to microcentrifuge tubes and stored for LC/MS/MS analysis of the degradation half-life of the test compounds.

increase in the degradation half-life as compared to the non-isotopically enriched drug (clarithromycin) | SMILES
10-400% | [2H]C([2H])([2H])O[C@]1(C)C[C@@H](C)C(=O)[C@H](C)[C@@H](O)[C@](C)(O)[C@@H](CC)OC(=O)[C@H](C)[C@@H](O[C@H]2C[C@@](C)(OC)[C@@H](O)[C@H](C)O2)[C@H](C)[C@H]1O[C@@H]1O[C@H](C)C[C@H](N(C)C)[C@H]1O [Example 8, d3-6-O-Methyl-Erythromycin A (d3-clarithromycin)]
10-400% | [2H]C([2H])([2H])O[C@]1(C)C[C@@H](C)C(=O)[C@H](C)[C@@H](O)[C@](C)(O)[C@@H](CC)OC(=O)[C@H](C)[C@@H](O[C@H]2C[C@@](C)(OC)[C@@H](O)[C@H](C)O2)[C@H](C)[C@H]1O[C@@H]1O[C@H](C)C[C@H](N(C)C([2H])([2H])[2H])[C@H]1O [Example 11, d6-6-O-Methyl-Erythromycin A (d6-clarithromycin)]
10-400% | [2H]C([2H])([2H])N(C)[C@H]1C[C@@H](C)O[C@@H](O[C@@H]2[C@@H](C)[C@H](O[C@H]3C[C@@](C)(OC)[C@@H](O)[C@H](C)O3)[C@@H](C)C(=O)O[C@H](CC)[C@@](C)(O)[C@H](O)[C@@H](C)C(=O)[C@H](C)C[C@@]2(C)OC)[C@@H]1O [Example 12, d3-6-O-Methyl-Erythromycin A (d3-clarithromycin)]
